Laboratory results taken from patent US20230139171A1 (SITA Information Networking Computing UK Limited, priority 2019, published 2023).

Legend:
Format in all cases: cell-based
human TLR7 = molecular target: T1, human TLR7 (Homo sapiens, UniProt Q9NYK1); assay: TLR7 inhibition reporter assay (HEK-Blue cells, SEAP reporter, gardiquimod stimulation); conditions: HEK-Blue cells overexpressing human TLR7, SEAP reporter, gardiquimod 7.5 μM; read-out: TLR7 IC50
T1 construct: host or cells: HEK-Blue cells
T1 sequence (Q9NYK1 27-1049): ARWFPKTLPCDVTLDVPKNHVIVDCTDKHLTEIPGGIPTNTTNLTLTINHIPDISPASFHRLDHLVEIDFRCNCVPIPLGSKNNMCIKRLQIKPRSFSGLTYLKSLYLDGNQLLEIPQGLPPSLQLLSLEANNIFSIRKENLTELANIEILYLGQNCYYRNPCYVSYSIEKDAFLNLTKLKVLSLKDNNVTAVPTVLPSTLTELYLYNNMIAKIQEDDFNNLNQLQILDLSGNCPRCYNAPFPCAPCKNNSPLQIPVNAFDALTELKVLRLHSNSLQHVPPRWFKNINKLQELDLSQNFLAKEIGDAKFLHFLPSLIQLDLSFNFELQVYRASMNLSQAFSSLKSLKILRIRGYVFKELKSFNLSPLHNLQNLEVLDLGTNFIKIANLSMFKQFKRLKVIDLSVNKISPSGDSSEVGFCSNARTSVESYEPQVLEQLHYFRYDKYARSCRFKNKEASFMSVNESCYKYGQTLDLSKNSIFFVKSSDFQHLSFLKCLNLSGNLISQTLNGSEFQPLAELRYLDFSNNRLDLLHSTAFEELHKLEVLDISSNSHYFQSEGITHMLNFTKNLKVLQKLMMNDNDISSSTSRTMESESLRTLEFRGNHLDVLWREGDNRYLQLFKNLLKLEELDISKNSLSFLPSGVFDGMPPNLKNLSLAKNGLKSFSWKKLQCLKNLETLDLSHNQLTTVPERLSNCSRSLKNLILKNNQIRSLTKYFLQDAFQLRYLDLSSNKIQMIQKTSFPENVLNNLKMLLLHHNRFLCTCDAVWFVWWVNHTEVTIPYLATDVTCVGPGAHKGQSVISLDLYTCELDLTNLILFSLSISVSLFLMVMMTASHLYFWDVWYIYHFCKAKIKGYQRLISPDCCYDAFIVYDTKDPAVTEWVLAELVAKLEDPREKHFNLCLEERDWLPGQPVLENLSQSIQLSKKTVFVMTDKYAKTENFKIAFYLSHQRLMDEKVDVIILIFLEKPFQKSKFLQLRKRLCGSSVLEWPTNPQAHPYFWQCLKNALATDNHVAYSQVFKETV
Outline: (§1)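 Screening used HEK-Blue cells overexpressing one human TLR (7, 8 or 9) and an IFN-β minimal promoter–NF-κB/AP-1 SEAP construct. Stimulation lasted 22 h at 37 °C with receptor-specific agonist: gardiquimod, R848 or ODN2006 at 7.5 μM, 15.9 μM and 5 nM.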

human TLR9 = molecular target: T2, human TLR9 (Homo sapiens, UniProt Q9NR96); assay: TLR9 inhibition reporter assay (HEK-Blue cells, SEAP reporter, ODN2006 stimulation); conditions: HEK-Blue cells overexpressing human TLR9, SEAP reporter, ODN2006 5 nM
T2 construct: host or cells: HEK-Blue cells
T2 sequence (Q9NR96 26-1032): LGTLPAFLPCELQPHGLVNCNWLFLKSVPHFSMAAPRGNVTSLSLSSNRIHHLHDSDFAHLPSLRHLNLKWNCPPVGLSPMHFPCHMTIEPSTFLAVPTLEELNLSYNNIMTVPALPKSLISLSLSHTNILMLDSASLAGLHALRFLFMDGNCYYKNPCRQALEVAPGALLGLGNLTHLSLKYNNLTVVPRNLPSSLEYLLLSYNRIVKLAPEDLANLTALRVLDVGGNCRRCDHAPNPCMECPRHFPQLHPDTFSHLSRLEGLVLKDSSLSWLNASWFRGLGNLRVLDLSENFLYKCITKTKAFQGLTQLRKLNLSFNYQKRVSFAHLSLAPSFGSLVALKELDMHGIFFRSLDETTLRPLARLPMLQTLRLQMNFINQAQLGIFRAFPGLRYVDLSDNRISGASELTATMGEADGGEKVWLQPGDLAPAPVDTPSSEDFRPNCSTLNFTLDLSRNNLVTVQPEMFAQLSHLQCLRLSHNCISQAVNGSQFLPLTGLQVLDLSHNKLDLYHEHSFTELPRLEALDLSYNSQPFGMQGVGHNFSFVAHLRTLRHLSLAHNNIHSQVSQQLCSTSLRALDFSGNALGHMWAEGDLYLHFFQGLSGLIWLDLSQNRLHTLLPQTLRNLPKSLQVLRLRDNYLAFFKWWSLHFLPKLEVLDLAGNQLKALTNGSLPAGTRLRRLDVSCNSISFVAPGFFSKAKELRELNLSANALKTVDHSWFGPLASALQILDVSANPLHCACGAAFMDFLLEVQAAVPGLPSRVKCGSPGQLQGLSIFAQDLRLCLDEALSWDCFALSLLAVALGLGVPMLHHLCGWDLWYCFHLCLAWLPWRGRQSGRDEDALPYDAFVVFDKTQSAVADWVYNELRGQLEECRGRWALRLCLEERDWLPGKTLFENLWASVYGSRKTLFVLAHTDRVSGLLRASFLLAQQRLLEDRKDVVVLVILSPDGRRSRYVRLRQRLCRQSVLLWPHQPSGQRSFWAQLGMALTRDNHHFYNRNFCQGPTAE
Outline: as §1

human TLR8 = molecular target: T3, human TLR8 (Homo sapiens, UniProt Q9NR97); assay: TLR8 inhibition reporter assay (HEK-Blue cells, SEAP reporter, R848 stimulation); conditions: HEK-Blue cells overexpressing human TLR8, SEAP reporter, R848 15.9 μM; read-out: TLR8 IC50
T3 construct: host or cells: HEK-Blue cells
T3 sequence (Q9NR97 27-1041): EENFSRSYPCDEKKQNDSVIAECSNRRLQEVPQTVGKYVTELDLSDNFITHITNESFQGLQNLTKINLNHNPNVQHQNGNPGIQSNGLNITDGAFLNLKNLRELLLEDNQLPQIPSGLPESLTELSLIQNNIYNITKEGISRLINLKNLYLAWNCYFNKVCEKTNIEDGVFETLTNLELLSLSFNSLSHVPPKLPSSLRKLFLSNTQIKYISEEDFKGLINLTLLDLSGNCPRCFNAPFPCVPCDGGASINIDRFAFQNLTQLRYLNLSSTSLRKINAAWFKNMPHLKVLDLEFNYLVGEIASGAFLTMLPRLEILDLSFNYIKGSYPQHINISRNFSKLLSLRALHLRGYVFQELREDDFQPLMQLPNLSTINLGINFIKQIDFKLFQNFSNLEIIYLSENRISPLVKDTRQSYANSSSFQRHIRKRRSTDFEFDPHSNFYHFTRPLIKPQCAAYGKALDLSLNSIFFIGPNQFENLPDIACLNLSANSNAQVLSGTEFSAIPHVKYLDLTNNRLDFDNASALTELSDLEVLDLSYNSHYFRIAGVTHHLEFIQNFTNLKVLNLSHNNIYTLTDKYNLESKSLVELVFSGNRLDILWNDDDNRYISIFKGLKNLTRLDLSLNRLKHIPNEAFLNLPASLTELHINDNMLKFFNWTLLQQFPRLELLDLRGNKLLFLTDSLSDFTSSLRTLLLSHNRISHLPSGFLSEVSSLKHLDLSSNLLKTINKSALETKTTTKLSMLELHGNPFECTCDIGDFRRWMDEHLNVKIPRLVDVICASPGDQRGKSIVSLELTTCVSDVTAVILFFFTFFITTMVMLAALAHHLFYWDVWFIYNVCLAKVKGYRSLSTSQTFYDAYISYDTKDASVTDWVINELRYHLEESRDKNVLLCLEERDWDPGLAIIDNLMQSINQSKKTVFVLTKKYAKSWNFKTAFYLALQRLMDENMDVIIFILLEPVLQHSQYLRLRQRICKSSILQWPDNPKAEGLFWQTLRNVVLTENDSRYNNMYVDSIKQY
Outline: as §1

SMILES | IC50 (human TLR7) [nM] | IC50 (human TLR9) [nM] | IC50 (human TLR8) [nM]
Cc1c(-c2[nH]c3sc(C4CCC(NC5CCOCC5)CC4)nc3c2C(C)C)cn2ncnc2c1C (single isomer, unassigned) [Example 201, N-(4-(5-(7,8-dimethyl-[1,2,4]triazolo[1,5-a]pyridin-6-yl)-6-isopropyl-4H-pyrrolo[3,2-d]thiazol-2-yl)cyclohexyl)tetrahydro-2H-pyran-4-amine] | 6.66 | 9250 | 4.21
Cc1c(-c2[nH]c3sc(C4CCC(N5CC(F)(F)C5)CC4)nc3c2C(C)C)cn2ncnc2c1C (single isomer, unassigned) [Example 219, 2-(4-(3,3-difluoroazetidin-1-yl)cyclohexyl)-5-(7,8-dimethyl-[1,2,4]triazolo[1,5-a]pyridin-6-yl)-6-isopropyl-4H-pyrrolo[3,2-d]thiazole] | 637 | 46200 | 713
Cc1c(-c2[nH]c3sc(N4CCC(NCC(C)(C)O)CC4)nc3c2C(C)C)cn2ncnc2c1C [Example 291, 1-((1-(5-(7,8-dimethyl-[1,2,4]triazolo[1,5-a]pyridin-6-yl)-6-isopropyl-4H-pyrrolo[3,2-d]thiazol-2-yl)piperidin-4-yl)amino)-2-methylpropan-2-ol] | 7.65 | 16800 | 0.39
CCc1c(-c2cc(OC)c3ncnn3c2)[nH]c2sc(C3CCC(N4CC5(COC5)C4)CC3)nc12 (single isomer, unassigned) [Example 270, 6-(4-(6-ethyl-5-(8-methoxy-[1,2,4]triazolo[1,5-a]pyridin-6-yl)-4H-pyrrolo[3,2-d]thiazol-2-yl)cyclohexyl)-2-oxa-6-azaspiro[3.3]heptane] | 8.99 | 3460 | 14
Cc1c(-c2[nH]c3sc(N4CCN(CC5CC5)C[C@@H]4C)nc3c2C(C)C)cn2ncnc2c1C [Example 352, (S)-2-(4-(cyclopropylmethyl)-2-methylpiperazin-1-yl)-5-(7,8-dimethyl-[1,2,4]triazolo[1,5-a]pyridin-6-yl)-6-isopropyl-4H-pyrrolo[3,2-d]thiazole] | 14.4 | 24500 | 1.09
COc1cc(-c2[nH]c3sc(C4CCC(N5CCS(=O)(=O)CC5)CC4)nc3c2C(C)C)cn2ncnc12 (single isomer, unassigned) [Example 83, 4-(4-(6-isopropyl-5-(8-methoxy-[1,2,4]triazolo[1,5-a]pyridin-6-yl)-4H-pyrrolo[3,2-d]thiazol-2-yl)cyclohexyl)thiomorpholine 1,1-dioxide] | 6.33 | > 50000 | 238
Cc1c(-c2[nH]c3sc(N4CCNCC4)nc3c2C(C)C)cn(C)c(=O)c1C [Example 279, 5-(6-isopropyl-2-(piperazin-1-yl)-4H-pyrrolo[3,2-d]thiazol-5-yl)-1,3,4-trimethylpyridin-2(1H)-one] | 11 | 23900 | 1.08
COc1cc(-c2[nH]c3sc(C4CCC(N5[C@@H]6CC[C@H]5COC6)CC4)nc3c2C(C)C)cn2ncnc12 (single isomer, unassigned) [Example 105] | 1.38 | 2180 | 43.2

Next, values leading:

IC50 (human TLR7) [nM] | IC50 (human TLR9) [nM] | IC50 (human TLR8) [nM] | SMILES
2.6 | 20300 | 15.7 | COc1cc(-c2[nH]c3sc(C4CCC(N(C)CC(=O)N(C)C)CC4)nc3c2C(C)C)cn2ncnc12 (single isomer, unassigned) [Example 162, 2-((4-(6-isopropyl-5-(8-methoxy-[1,2,4]triazolo[1,5-a]pyridin-6-yl)-4H-pyrrolo[3,2-d]thiazol-2-yl)cyclohexyl)(methyl)amino)-N,N-dimethylacetamide]
2.38 | 1760 | 4.65 | CNCCNC1CCC(c2nc3c(C(C)C)c(-c4cc(OC)c5ncnn5c4)[nH]c3s2)CC1 (single isomer, unassigned) [Example 170, N1-(4-(6-isopropyl-5-(8-methoxy-[1,2,4]triazolo[1,5-a]pyridin-6-yl)-4H-pyrrolo[3,2-d]thiazol-2-yl)cyclohexyl)-N2-methylethane-1,2-diamine]
0.71 | 10800 | 0.58 | COC1CN(C2CCC(c3nc4c(C(C)C)c(-c5cn6ncnc6c(C)c5C)[nH]c4s3)CC2)C1 (single isomer, unassigned) [Example 188, 5-(7,8-dimethyl-[1,2,4]triazolo[1,5-a]pyridin-6-yl)-6-isopropyl-2-(4-(3-methoxyazetidin-1-yl)cyclohexyl)-4H-pyrrolo[3,2-d]thiazole]
2.24 | 5500 | 1.66 | Cc1c(-c2[nH]c3sc(C4CCC(NC(C)C)CC4)nc3c2C(C)C)cn2ncnc2c1C (single isomer, unassigned) [Example 195, 4-(5-(7,8-dimethyl-[1,2,4]triazolo[1,5-a]pyridin-6-yl)-6-isopropyl-4H-pyrrolo[3,2-d]thiazol-2-yl)-N-isopropylcyclohexan-1-amine]
